Structures can show the parent of a compound that is named as a salt. Where two headings read alike, the source gives them in different places. One block for each compound: values may come before it.
Experiments:
HPLC-based logD analysis = type: physicochemical; settings: ODP-50 column, phosphate buffer pH 7.4, n=3
Method: LogD values were determined using an HPLC-based assay according to Donovan and Pescatore. A cocktail of two internal standards (toluene and triphenylene) with known logD and k′ values and FE@SNAP in methanol were injected into a short polymeric ODP-50 column. A linear gradient from 10% methanol/90% phosphate buffer (pH 7.4) to 100% methanol within 9.4 min at a flow rate of 1.5 mL/min was applied. Detection was performed at 260 nm and 285 nm.

[1] = plasma free fraction (centrifugal filter units); type: in vitro ADME; settings: human plasma, n=3
Method: The method used was modified from Parsey et al.. 1 mL of heparinized plasma (rat and human, respectively) were mixed with 10–50 μL [^18F]FE@SNAP. 200 μL aliquots were pipetted into the centrifugal filter units and the total radioactivity was measured in a Gamma Counter. After the centrifugation step (2.000 × g, 50 min), 50 μL of the obtained filtrate was back-measured for radioactivity. For the determination of the plasma free fraction (f1), the ratio of filtrate to total activity concentration was calculated.

[2] = plasma stability in rat plasma; type: in vitro ADME; settings: for degradation in rat plasma (in words): after 120 min
Method: (§1) The stability of [^18F]FE@SNAP in human and rat plasma was determined according to Nics et al.. 1800 μL of lithium-heparinized plasma (rat and human, respectively) were pre-incubated under physiological conditions (PBS, pH 7.4, 37°C) in a shaking incubator for 5 minutes. 36 μL [^18F]FE@SNAP (corresponding to 2% ethanol v/v in the total volume) were added and the plasma vial was vortexed for at least 10 seconds. After defined points in time (0 and 120 min), 500 μL of the incubation-mixture were added to a preconditioned (with 5 mL methanol followed by 5 mL water) SPE-cartridge (Oasis). The cartridge was then eluted into a collection tube, washed with 5 mL of 5% methanol in water (v/v) into a second tube, and eluted with 3 mL of THF into a third tube. 20 μL of the eluate-solution of tube two and three were injected into the analytical HPLC (mobile phase: (water/acetic acid 97.5/2.5 v/v; 2.5 g/L ammonium acetate; pH 3.5)/acetonitrile 70/30 v/v; flow: 2mL/min).

porcine carboxylesterase = test: stability against carboxylesterase (Michaelis-Menten kinetics); type: in vitro ADME; settings: porcine carboxylesterase 80 I.U., PBS pH 7.4, 37°C
Method: The method used was slightly modified from Nics et al.. Incubations of different amounts (10, 30, 50, 70, 100, 200 μg/ml) of FE@SNAP were accomplished with a constant quantity of 80 International Units (I.U.) of porcine carboxylesterase under physiological conditions (PBS, pH 7.4, 37°C). The use of selected concentrations of FE@SNAP was based on an optimal choice to create Michaelis-Menten kinetics (MMK). 35 μl of the incubation-mixture were stopped after defined points in time (0, 60, 120, 180, and 240 min) by adding the same amount of ice-cold acetonitrile/methanol (10:1) and then vortexed. After centrifugation of the reaction mixtures (23.000 × g, 5 min), 20 μL of the obtained supernatant were analyzed by analytical HPLC (for conditions see Plasma Stability). The MMK of FE@SNAP was calculated by using GraphPad Prism software Version 5.0 (La Jolla, CA, USA).

hMCHR2 = molecular target: T1, hMCHR2 (Homo sapiens, UniProt Q969V1); test: preliminary competition binding against [^125I]MCH on hMCHR2
T1 construct: purchased PerkinElmer; host or cells: CHO-K1 cell membranes (recombinant expression)
T1 sequence (Q969V1 whole entry): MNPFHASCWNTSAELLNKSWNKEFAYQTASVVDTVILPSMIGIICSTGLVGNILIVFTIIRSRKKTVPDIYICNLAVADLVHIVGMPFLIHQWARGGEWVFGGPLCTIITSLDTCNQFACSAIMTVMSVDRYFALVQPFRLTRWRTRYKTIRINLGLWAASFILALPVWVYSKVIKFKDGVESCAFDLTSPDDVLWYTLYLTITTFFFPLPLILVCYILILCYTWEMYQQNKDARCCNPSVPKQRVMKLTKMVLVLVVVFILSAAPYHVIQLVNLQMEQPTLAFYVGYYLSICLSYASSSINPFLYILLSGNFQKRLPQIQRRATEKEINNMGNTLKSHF
Text: [^18F]fluoride was produced via the ^18O(p,n)^18F reaction in a GE PET trace cyclotron (16.5-MeV protons; GE Medical Systems, Uppsala, Sweden). H2^18O (HYOX18; > 98%) was purchased from Rotem Europe (Leipzig, Germany). Typical beam currents were 48–52 μA and irradiation was stopped as soon as the desired activity level was reached (approx. 25–30 GBq). Anion-exchange cartridges (PS-HCO3) for [^18F]fluoride trapping were obtained from Macherey-Nagel (Dueren, Germany). The precursor compound (Tos@SNAP; 4, Fig. 1) and the reference standard (FE@SNAP) were synthesized in cooperation with the Department of Drug and Natural Product Synthesis of the University of Vienna (Austria). Solid phase extraction (SPE) cartridges SepPak® C18-plus and the Oasis HLB 6cc Vac (200 mg) were purchased from Waters (Waters® Associates, Milford, MA, USA). Sterile water Ecotainer® and 0.9% saline solution were purchased from B. Braun (Melsungen, Germany). 3% saline solution was obtained from a local pharmacy (Landesapotheke Salzburg, Austria). A 125 mM phosphate buffer was prepared by dissolving 0.224g sodium dihydrogen phosphate-monohydrate and 1.935g disodium hydrogen phosphate-dihydrate (both from Merck, Darmstadt, Germany) in 100 mL of sterile water. Phosphate-buffered saline (PBS) concentrate (10:1) was obtained from Morphisto (Frankfurt, Germany). […]

human MCHR1 (hMCHR1) = molecular target: human MCHR1 (hMCHR1); set-up: method as in PMID 12118247; settings: Cos-7 cells expressing the human MCHR1; cited from earlier work
[3] = set-up: method as in PMID 23829932; settings: evaluated previously; cited from earlier work
[4] = plasma stability in human plasma; type: in vitro ADME; settings: 37°C, pH 7.4, n=6
Method: as §1

hMCHR1 = molecular target: T2, hMCHR1 (Homo sapiens, UniProt Q99705); test: saturation binding of [^18F]FE@SNAP on CHO-K1 cell membranes expressing hMCHR1; settings: CHO-K1 membranes expressing hMCHR1, room temperature, 120 min, n=2
T2 construct: purchased PerkinElmer; host or cells: CHO-K1 cell membranes (recombinant expression)
T2 sequence (Q99705 whole entry): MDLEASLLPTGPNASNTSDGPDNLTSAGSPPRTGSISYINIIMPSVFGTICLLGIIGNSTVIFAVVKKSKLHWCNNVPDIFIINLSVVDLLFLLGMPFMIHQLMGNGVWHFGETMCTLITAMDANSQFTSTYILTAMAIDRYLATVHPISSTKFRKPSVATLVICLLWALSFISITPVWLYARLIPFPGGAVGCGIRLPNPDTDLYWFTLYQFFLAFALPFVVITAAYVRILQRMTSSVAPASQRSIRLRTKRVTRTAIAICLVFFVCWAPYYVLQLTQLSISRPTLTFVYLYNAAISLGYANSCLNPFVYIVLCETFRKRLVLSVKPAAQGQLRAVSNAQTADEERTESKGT
Method: The method used was conducted according to Mashiko et al. with minor modifications. CHO-K1 cell membranes expressing hMCHR1 (10 μg/mL) were dissolved in 500 μL and a 50 mM Tris buffer (pH 7.4) (containing 10 mM MgCl2, 2 mM EDTA, 0.1% bacitracin and 0.2% BSA). For the evaluation of the equilibrium dissociation constant (Kd) of [^18F]FE@SNAP, several concentrations (0–500 nM) of [^18F]FE@SNAP were added. The membranes were incubated in vials at room temperature for 120 min. Bound and free fractions of the radioligand were separated by centrifugation at 40.000 × g for 20 min. The supernatants were removed into new vials. The pellets were washed with 800 μL of the ice cold Tris buffer, which was added to the supernatant, and the pellets were dissolved in 1300 μL of the Tris buffer. The radioactivity in the vials was measured by a Gamma Counter. The Kd values were calculated by using GraphPad Prism software Version 5.0 (La Jolla, CA, USA).

[5] = test system: CYP450, human liver microsomes; test: stability against liver microsomes (CYP450), human; type: in vitro ADME; settings: after 60 min, n=4
Method: (§2) The method used was described by Nics et al.. Briefly, liver microsomes (pooled from human or rat origin) were pre-incubated under physiological conditions (PBS, pH 7.4, 37°C) with a NADPH-generating system (solution-A: NADP+, glucose-6-phosphate and magnesium-chloride in H2O and solution-B: glucose-6-phosphate dehydrogenase in sodium citrate) for 5 min. 6 μL of [^18F]FE@SNAP, which correspond to 2% ethanol (v/v) in the total volume, were added. Enzymatic reactions were stopped after defined points in time (0, 2, 5, 10, 20, 40, and 60 min) by adding the same amount of ice-cold acetonitrile/methanol (10:1). The mixtures were vortexed, followed by a centrifugation step (23.000 × g, 5 min). Aliquots of the obtained supernatant were analyzed by an analytical HPLC (for conditions see Plasma Stability).

[6] = test system: CYP450, rat liver microsomes; test: stability against liver microsomes (CYP450), rat; type: in vitro ADME; settings: after 60 min, n=4
Method: as §2

[7] = set-up: method as in PMID 10908045; settings: cited from earlier work

logD (HPLC-based logD analysis): 3.83 ± 0.1
plasma free fraction (f1) [1]: 12.6 ± 0.2%
degradation in rat plasma (in words) [2]: complete
limiting velocity (Vmax) (porcine carboxylesterase): 0.874 µM/min
Km (porcine carboxylesterase; read-out: Michaelis-Menten constant (Km)): 347 µM
Ki (hMCHR2): > 1000 nM
SMILES: COCC1=C(C(=O)OCCF)C(c2ccc(F)c(F)c2)N(C(=O)NCCCN2CCC(c3cccc(NC(C)=O)c3)CC2)C(=O)N1 (stereo not drawn) [FE@SNAP]

SMILES: COCC1=C(C(=O)OC)[C@H](c2ccc(F)c(F)c2)N(C(=O)NCCCN2CCC(c3cccc(NC(C)=O)c3)CC2)C(=O)N1 [SNAP-7941, (+)-methyl (4S)-3-{[(3-{4-[3-(acetylamino)phenyl]-1-piperidinyl}propyl)amino]carbonyl}-4-(3,4-difluorophenyl)-6-(methoxymethyl)-2-oxo-1,2,3,4-tetrahydro-5-pyrimidinecarboxylate hydrochloride]
Kd (human MCHR1 (hMCHR1)): 0.18 nM

SMILES: COCC1=C(C(=O)O[11CH3])[C@H](c2ccc(F)c(F)c2)N(C(=O)NCCCN2CCC(c3cccc(NC(C)=O)c3)CC2)C(=O)N1 [[^11C]SNAP-7941]
degradation in rat plasma (in words) [3]: rapid enzymatic degradation

chromatographic logD (HPLC-based logD analysis; polymeric ODP-50 HPLC column): 3.83
degradation in human plasma ([4]; after 0 min): 0.48 ± 0.5%
degradation in human plasma ([4]; after 120 min): 3.87 ± 3.9%
Kd (hMCHR1): 2.9 nM
fraction unbound ([1]; heparinized plasma, read-out: plasma free fraction (f1)): 0.126 ± 0.002
degradation in rat plasma (in words) [2]: completely metabolized
degradation in rat plasma ([2]; initially (0 min), 37°C, pH 7.4, n=11): 32.44 ± 33.5%
enzymatic degradation by CYP450 [5]: 5.39 ± 1.6%
enzymatic degradation by CYP450 [6]: 2.59 ± 1.8%
SMILES: COCC1=C(C(=O)OCC[18F])[C@H](c2ccc(F)c(F)c2)N(C(=O)NCCCN2CCC(c3cccc(NC(C)=O)c3)CC2)C(=O)N1 [[^18F]FE@SNAP]

SMILES: COc1ccccc1N1CCN(CCN(c2ccccn2)[11C](=O)C2CCCCC2)CC1 [[carbonyl-^11C]WAY-100635]
plasma free fraction [7]: 5.8 ± 0.2%

Reference: paper PMC3791928, “Preparation and First Preclinical Evaluation of [^18F]FE@SNAP: A Potential PET Tracer for the Melanin-Concentrating Hormone Receptor-1 (MCHR1)” (Scientia Pharmaceutica, 2013)
